According to patent US8067454B2, “Thio-substituted Anthra [1, 2-d] imidazole- 6, 11-dione derivatives, preparation method and application thereof” (National Defense Medical Center, priority 2010, dated 2011):

What was measured:
[1] = system: SF-268; experiment: NCI 60-cell drug screen, CNS Cancer SF-268; type: cell-based, human; conditions: 1.00E−5 Molar
[2] = system: UO-31; experiment: NCI 60-cell drug screen, Renal Cancer UO-31; type: cell-based, human; conditions: 1.00E−5 Molar
[3] = system: SVG p12; experiment: MTT assay, SVG p12 normal cell; conditions: concentration 10 μM, normal cell
[4] = system: NCI-H226; experiment: NCI 60-cell drug screen, Non-Small Cell Lung Cancer NCI-H226; type: cell-based, human; conditions: 1.00E−5 Molar
[5] = system: SK-MEL-5; experiment: NCI 60-cell drug screen, Melanoma SK-MEL-5; type: cell-based, human; conditions: 1.00E−5 Molar
[6] = system: 786-0; experiment: NCI 60-cell drug screen, Renal Cancer 786-0; type: cell-based, human; conditions: 1.00E−5 Molar
[7] = system: MDA-MB-435; experiment: NCI 60-cell drug screen, Melanoma MDA-MB-435; type: cell-based, human; conditions: 1.00E−5 Molar
[8] = system: HOP-62; experiment: NCI 60-cell drug screen, Non-Small Cell Lung Cancer HOP-62; type: cell-based, human; conditions: 1.00E−5 Molar
[9] = system: SNB-75; experiment: NCI 60-cell drug screen, CNS Cancer SNB-75; type: cell-based, human; conditions: 1.00E−5 Molar
[10] = system: ACHN; experiment: NCI 60-cell drug screen, Renal Cancer ACHN; type: cell-based, human; conditions: 1.00E−5 Molar
[11] = system: MALME-3M; experiment: NCI 60-cell drug screen, Melanoma MALME-3M; type: cell-based, human; conditions: 1.00E−5 Molar
[12] = system: GBM8901; experiment: MTT assay, GBM8901 tumor cell; conditions: concentration 10 μM, tumor cell
[13] = system: RXF 393; experiment: NCI 60-cell drug screen, Renal Cancer RXF 393; type: cell-based, human; conditions: 1.00E−5 Molar
[14] = system: SK-OV-3; experiment: NCI 60-cell drug screen, Ovarian Cancer SK-OV-3; type: cell-based, human; conditions: 1.00E−5 Molar
[15] = system: UACC-62; experiment: NCI 60-cell drug screen, Melanoma UACC-62; type: cell-based, human; conditions: 1.00E−5 Molar
[16] = system: SF-295; experiment: NCI 60-cell drug screen, CNS Cancer SF-295; type: cell-based, human; conditions: 1.00E−5 Molar
[17] = system: GBM8401; experiment: MTT assay, GBM8401 tumor cell; conditions: concentration 10 μM, tumor cell
[18] = system: IGROV1; experiment: NCI 60-cell drug screen, Ovarian Cancer IGROV1; type: cell-based, human; conditions: 1.00E−5 Molar
[19] = system: HL-60(TB); experiment: NCI 60-cell drug screen, Leukemia HL-60(TB); type: cell-based, human; conditions: 1.00E−5 Molar
[20] = system: A549/ATCC; experiment: NCI 60-cell drug screen, Non-Small Cell Lung Cancer A549/ATCC; type: cell-based, human; conditions: 1.00E−5 Molar
[21] = system: HCT-116; experiment: NCI 60-cell drug screen, Colon Cancer HCT-116; type: cell-based, human; conditions: 1.00E−5 Molar
[22] = system: SR; experiment: NCI 60-cell drug screen, Leukemia SR; type: cell-based, human; conditions: 1.00E−5 Molar
[23] = system: TK-10; experiment: NCI 60-cell drug screen, Renal Cancer TK-10; type: cell-based, human; conditions: 1.00E−5 Molar
[24] = system: COLO 205; experiment: NCI 60-cell drug screen, Colon Cancer COLO 205; type: cell-based, human; conditions: 1.00E−5 Molar
[25] = system: OVCAR-5; experiment: NCI 60-cell drug screen, Ovarian Cancer OVCAR-5; type: cell-based, human; conditions: 1.00E−5 Molar
[26] = system: EKVX; experiment: NCI 60-cell drug screen, Non-Small Cell Lung Cancer EKVX; type: cell-based, human; conditions: 1.00E−5 Molar
[27] = system: DU-145; experiment: NCI 60-cell drug screen, Prostate Cancer DU-145; type: cell-based, human; conditions: 1.00E−5 Molar
[28] = system: MCF7; experiment: NCI 60-cell drug screen, Breast Cancer MCF7; type: cell-based, human; conditions: 1.00E−5 Molar
[29] = system: A498; experiment: NCI 60-cell drug screen, Renal Cancer A498; type: cell-based, human; conditions: 1.00E−5 Molar
[30] = system: SN12C; experiment: NCI 60-cell drug screen, Renal Cancer SN12C; type: cell-based, human; conditions: 1.00E−5 Molar
[31] = system: SW-620; experiment: NCI 60-cell drug screen, Colon Cancer SW-620; type: cell-based, human; conditions: 1.00E−5 Molar
[32] = system: M14; experiment: NCI 60-cell drug screen, Melanoma M14; type: cell-based, human; conditions: 1.00E−5 Molar
[33] = system: NCI-H460; experiment: NCI 60-cell drug screen, Non-Small Cell Lung Cancer NCI-H460; type: cell-based, human; conditions: 1.00E−5 Molar
[34] = system: NCI-H23; experiment: NCI 60-cell drug screen, Non-Small Cell Lung Cancer NCI-H23; type: cell-based, human; conditions: 1.00E−5 Molar
[35] = system: K-562; experiment: NCI 60-cell drug screen, Leukemia K-562; type: cell-based, human; conditions: 1.00E−5 Molar
[36] = system: RPMI-8226; experiment: NCI 60-cell drug screen, Leukemia RPMI-8226; type: cell-based, human; conditions: 1.00E−5 Molar
[37] = system: LOX IMVI; experiment: NCI 60-cell drug screen, Melanoma LOX IMVI; type: cell-based, human; conditions: 1.00E−5 Molar
[38] = system: MOLT-4; experiment: NCI 60-cell drug screen, Leukemia MOLT-4; type: cell-based, human; conditions: 1.00E−5 Molar
[39] = system: HCT-15; experiment: NCI 60-cell drug screen, Colon Cancer HCT-15; type: cell-based, human; conditions: 1.00E−5 Molar
[40] = system: OVCAR-4; experiment: NCI 60-cell drug screen, Ovarian Cancer OVCAR-4; type: cell-based, human; conditions: 1.00E−5 Molar
[41] = system: BT-549; experiment: NCI 60-cell drug screen, Breast Cancer BT-549; type: cell-based, human; conditions: 1.00E−5 Molar
[42] = system: SK-MEL-28; experiment: NCI 60-cell drug screen, Melanoma SK-MEL-28; type: cell-based, human; conditions: 1.00E−5 Molar
[43] = system: NCI-H322M; experiment: NCI 60-cell drug screen, Non-Small Cell Lung Cancer NCI-H322M; type: cell-based, human; conditions: 1.00E−5 Molar
[44] = system: MDA-MB-231/ATCC; experiment: NCI 60-cell drug screen, Breast Cancer MDA-MB-231/ATCC; type: cell-based, human; conditions: 1.00E−5 Molar
[45] = system: SK-MEL-2; experiment: NCI 60-cell drug screen, Melanoma SK-MEL-2; type: cell-based, human; conditions: 1.00E−5 Molar
[46] = system: SF-539; experiment: NCI 60-cell drug screen, CNS Cancer SF-539; type: cell-based, human; conditions: 1.00E−5 Molar
[47] = system: PC-3; experiment: NCI 60-cell drug screen, Prostate Cancer PC-3; type: cell-based, human; conditions: 1.00E−5 Molar
[48] = system: U251; experiment: NCI 60-cell drug screen, CNS Cancer U251; type: cell-based, human; conditions: 1.00E−5 Molar
[49] = system: NCI-H522; experiment: NCI 60-cell drug screen, Non-Small Cell Lung Cancer NCI-H522; type: cell-based, human; conditions: 1.00E−5 Molar
[50] = system: SNB-19; experiment: NCI 60-cell drug screen, CNS Cancer SNB-19; type: cell-based, human; conditions: 1.00E−5 Molar
[51] = system: KM12; experiment: NCI 60-cell drug screen, Colon Cancer KM12; type: cell-based, human; conditions: 1.00E−5 Molar
[52] = system: HOP-92; experiment: NCI 60-cell drug screen, Non-Small Cell Lung Cancer HOP-92; type: cell-based, human; conditions: 1.00E−5 Molar
[53] = system: HCC-2998; experiment: NCI 60-cell drug screen, Colon Cancer HCC-2998; type: cell-based, human; conditions: 1.00E−5 Molar

## CCSc1nc2ccc3c(c2[nH]1)C(=O)c1ccccc1C3=O [f1-1, 2-(Ethylthio)-1H-anthra[1,2-d]imidazole-6,11-dione]
[1]
  Growth Percent, SF-268: 75.67%
[2]
  Growth Percent, UO-31: 49.19%
[3]
  Cell survival rate (%) SVG p12: 98 ± 8%
[4]
  Growth Percent, NCI-H226: 62.07%
[5]
  Growth Percent, SK-MEL-5: 63.93%
[6]
  Growth Percent, 786-0: 85.38%
[7]
  Growth Percent, MDA-MB-435: 68.42%
[8]
  Growth Percent, HOP-62: 96.59%
[9]
  Growth Percent, SNB-75: 73.34%
[10]
  Growth Percent, ACHN: 37.57%
[11]
  Growth Percent, MALME-3M: 63.33%
[12]
  Cell survival rate (%) GBM8901: 58 ± 7%
[13]
  Growth Percent, RXF 393: 99.91%
[14]
  Growth Percent, SK-OV-3: 24.72%
[15]
  Growth Percent, UACC-62: 47.64%
[16]
  Growth Percent, SF-295: 100.85%
[17]
  Cell survival rate (%) GBM8401: 42 ± 20%
[18]
  Growth Percent, IGROV1: 73.41%
[19]
  Growth Percent, HL-60(TB): 62.64%
[20]
  Growth Percent, A549/ATCC: 100.94%
[21]
  Growth Percent, HCT-116: 68.78%
[22]
  Growth Percent, SR: 129.31%
[23]
  Growth Percent, TK-10: 74.09%
[24]
  Growth Percent, COLO 205: 71.84%
[25]
  Growth Percent, OVCAR-5: 85.38%
[26]
  Growth Percent, EKVX: 43.67%
[27]
  Growth Percent, DU-145: 64.51%
[28]
  Growth Percent, MCF7: 43.81%
[29]
  Growth Percent, A498: 75.49%
[30]
  Growth Percent, SN12C: 67.91%
[31]
  Growth Percent, SW-620: 84.53%
[32]
  Growth Percent, M14: 67.07%
[33]
  Growth Percent, NCI-H460: 38.83%
[34]
  Growth Percent, NCI-H23: 87.41%
[35]
  Growth Percent, K-562: 86.29%
[36]
  Growth Percent, RPMI-8226: 28.52%
[37]
  Growth Percent, LOX IMVI: 36.72%
[38]
  Growth Percent, MOLT-4: 100.70%
[39]
  Growth Percent, HCT-15: 32.29%
[40]
  Growth Percent, OVCAR-4: 55.05%
[41]
  Growth Percent, BT-549: 55.80%
[42]
  Growth Percent, SK-MEL-28: 97.72%
[43]
  Growth Percent, NCI-H322M: 33.44%
[44]
  Growth Percent, MDA-MB-231/ATCC: 84.79%
[45]
  Growth Percent, SK-MEL-2: 81.65%
[46]
  Growth Percent, SF-539: 58.58%
[47]
  Growth Percent, PC-3: 53.79%
[48]
  Growth Percent, U251: 65.03%
[49]
  Growth Percent, NCI-H522: 78.60%
[50]
  Growth Percent, SNB-19: 87.90%
[51]
  Growth Percent, KM12: 68.26%
[52]
  Growth Percent, HOP-92: 75.35%
[53]
  Growth Percent, HCC-2998: 89.42%
